Measured values as given in US9365522B2, “Pyrazole amide derivative” (AMGEN INC., priority 2015, dated 2016).

Target: T1, human RORγ-LBD (Homo sapiens, UniProt P51449)
T1 construct: made in house; host or cells: E. coli (BL-21)
T1 sequence (P51449 262-518): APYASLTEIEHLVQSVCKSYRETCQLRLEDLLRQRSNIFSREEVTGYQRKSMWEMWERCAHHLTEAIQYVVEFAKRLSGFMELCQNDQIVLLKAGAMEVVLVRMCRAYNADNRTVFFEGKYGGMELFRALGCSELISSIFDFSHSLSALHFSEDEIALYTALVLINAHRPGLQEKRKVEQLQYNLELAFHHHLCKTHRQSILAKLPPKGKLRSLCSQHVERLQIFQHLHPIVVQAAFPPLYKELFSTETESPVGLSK
Assay: ROR gamma coactivator peptide recruitment Alphascreen assay (RORγ-LBD binding to GRIP1 coactivator peptide)
Format: biochemical
Conditions: 5 nM human RORγ-LBD, 30 nM 7-β-hydroxycholesterol, 50 nM biotinylated GRIP1 coactivator peptide, overnight incubation at room temperature; read-out: result (pIC50, RORγ coactivator peptide recruitment Alphascreen assay) (converted)
In short: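 His/Flag-tagged human RORγ-LBD (aa 262-518, E. coli-expressed, 5 nM) with agonist 7-β-hydroxycholesterol (30 nM) and biotinylated GRIP1 LXXLL peptide (50 nM) in HEPES pH 7.4 buffer, 2.5% DMSO. Compound 1-in-2 dilutions; Alphascreen bead signal read after overnight incubation at room temperature; pIC50 calculated.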

SMILES	IC50 [nM]
CC(C)CCN(CC(=O)c1c(Cl)cncc1Cl)C(=O)c1cnn([C@H]2C[C@@H]3[C@H](C2)[C@@H]3C(=O)O)c1C(F)(F)F [Example 765, (1R,3r,5S,6r)-3-(4-((2-(3,5-dichloro-4-pyridinyl)-2-oxoethyl)(3-methylbutyl)carbamoyl)-5-(trifluoromethyl)-1H-pyrazol-1-yl)bicyclo[3.1.0]hexane-6-carboxylic acid]	245
C[C@]1(CN(CC(=O)c2c(Cl)ccc(F)c2Cl)C(=O)c2cnn([C@H]3CC[C@](C)(C(=O)O)CC3)c2C(F)(F)F)CCCO1 [Example 814, trans-4-(4-((2-(2,6-dichloro-3-fluorophenyl)-2-oxoethyl)(((2R)-2-methyltetrahydro-2-furanyl)methyl)carbamoyl)-5-(trifluoromethyl)-1H-pyrazol-1-yl)-1-methylcyclohexanecarboxylic acid]	9.12
CC1C[C@@H](n2ncc(C(=O)N(CC(=O)c3c(Cl)cncc3Cl)CC(C)(C)C)c2C(F)(F)F)CC[C@]1(C)C(=O)O (stereo in doubt) [Example 861, (1S,2S,4S)-4-(4-((2-(3,5-dichloro-4-pyridinyl)-2-oxoethyl)(2,2-dimethylpropyl)carbamoyl)-5-(trifluoromethyl)-1H-pyrazol-1-yl)-1,2-dimethylcyclohexanecarboxylic acid]	4.79
C[C@]1(C(=O)O)CC[C@H](n2ncc(C(=O)N(CC(=O)c3c(Cl)cccc3Cl)[C@@H]3CC34CCCC4)c2C(F)(F)F)CC1 [Example 652, trans-4-(4-((2-(2,6-dichlorophenyl)-2-oxoethyl)((1R)-spiro[2.4]hept-1-yl)carbamoyl)-5-(trifluoromethyl)-1H-pyrazol-1-yl)-1-methylcyclohexanecarboxylic acid]	4.37
C[C@]1(C(=O)O)CC[C@H](n2ncc(C(=O)N3C[C@H](C4CCCCC4)C[C@@H]3C(=O)c3c(Cl)cncc3Cl)c2C(F)(F)F)CC1 (single isomer, unassigned) [Example 822]	5890
C[C@@H]1C[C@@H](n2ncc(C(=O)N(CC(=O)c3c(Cl)cccc3Cl)CC(C)(C)F)c2C(F)(F)F)CC[C@@H]1C(=O)O [Example 831, (1S,2R,4S)-4-(4-((2-(2,6-dichlorophenyl)-2-oxoethyl)(2-fluoro-2-methylpropyl)carbamoyl)-5-(trifluoromethyl)-1H-pyrazol-1-yl)-2-methylcyclohexanecarboxylic acid]	2.63
C[C@@H]1C[C@@H](n2ncc(C(=O)N(CC(=O)c3c(Cl)ccc(F)c3Cl)[C@H]3C[C@@H]4[C@H](C3)C4(C)C)c2C(F)(F)F)CC[C@@H]1C(=O)O [Example 845, (1S,2R,4S)-4-(4-((2-(2,6-dichloro-3-fluorophenyl)-2-oxoethyl)((1R,3r,5S)-6,6-dimethylbicyclo[3.1.0]hexan-3-yl)carbamoyl)-5-(trifluoromethyl)-1H-pyrazol-1-yl)-2-methylcyclohexanecarboxylic acid]	1.45
COc1cc(Cl)c(C(=O)CN(C(=O)c2cnn([C@H]3CC[C@](C)(C(=O)O)CC3)c2C(F)(F)F)C2CCC(C)(C)CC2)c(Cl)c1 [Example 579, trans-4-(4-((2-(2,6-dichloro-4-methoxyphenyl)-2-oxoethyl)(4,4-dimethylcyclohexyl)carbamoyl)-5-(trifluoromethyl)-1H-pyrazol-1-yl)-1-methylcyclohexanecarboxylic acid]	4.27
CC(C)(C)C#CCN(CCc1c(Cl)cncc1Cl)C(=O)c1cnn([C@H]2CC[C@H](C(=O)O)CC2)c1C(F)(F)F [Example 548, trans-4-(4-((2-(3,5-dichloro-4-pyridinyl)ethyl)(4,4-dimethyl-2-pentyn-1-yl)carbamoyl)-5-(trifluoromethyl)-1H-pyrazol-1-yl)cyclohexanecarboxylic acid]	11.7
CC(C)(F)CN(CC(=O)c1c(Cl)cccc1Cl)C(=O)c1cnn([C@H]2CC[C@](C)(C(=O)O)CC2)c1C(F)(F)F [Example 832, trans-4-(4-((2-(2,6-dichlorophenyl)-2-oxoethyl)(2-fluoro-2-methylpropyl)carbamoyl)-5-(trifluoromethyl)-1H-pyrazol-1-yl)-1-methylcyclohexanecarboxylic acid]	3.89
O=C(c1cnn([C@H]2CC[C@H](C(=O)O)CC2)c1C(F)(F)F)N(CCc1c[nH]c2ccccc12)Cc1ccc(Cl)cc1 [Example 507, trans-4-(4-((4-chlorobenzyl)(2-(1H-indol-3-yl)ethyl)carbamoyl)-5-(trifluoromethyl)-1H-pyrazol-1-yl)cyclohexanecarboxylic acid]	32.4
C[C@@H]1C[C@H](n2ncc(C(=O)N(CC(=O)c3c(Cl)cccc3Cl)CC3CC(C)(C)C3)c2C(F)(F)F)CC[C@@H]1C(=O)O [Example 570, (1S,2R,4R)-4-(4-((2-(2,6-dichlorophenyl)-2-oxoethyl)((3,3-dimethylcyclobutyl)methyl)carbamoyl)-5-(trifluoromethyl)-1H-pyrazol-1-yl)-2-methylcyclohexanecarboxylic acid]	18.6
COc1cc(Cl)c(C(=O)CN(CC2CC(C)(C)C2)C(=O)c2cnn([C@H]3CC[C@H](C(=O)O)CC3)c2C(F)(F)F)c(Cl)c1 [Example 580, trans-4-(4-((2-(2,6-dichloro-4-methoxyphenyl)-2-oxoethyl)((3,3-dimethylcyclobutyl)methyl)carbamoyl)-5-(trifluoromethyl)-1H-pyrazol-1-yl)cyclohexanecarboxylic acid]	5.01

Further lines, results first:

IC50 [nM]	SMILES
3.55	CC1(CN(CC(=O)c2c(Cl)cncc2Cl)C(=O)c2cnn([C@H]3CC[C@](C)(C(=O)O)CC3)c2C(F)(F)F)CCC1 [Example 730, trans-4-(4-((2-(3,5-dichloro-4-pyridinyl)-2-oxoethyl)((1-methylcyclobutyl)methyl)carbamoyl)-5-(trifluoromethyl)-1H-pyrazol-1-yl)-1-methylcyclohexanecarboxylic acid]
0.891	Cc1cc(Cl)c(C(=O)CN(CC2(C)CCCC2)C(=O)c2cnn([C@H]3CC[C@](C)(C(=O)O)CC3)c2C(F)(F)F)c(Cl)c1 [Example 709, trans-4-(4-((2-(2,6-dichloro-4-methylphenyl)-2-oxoethyl)((1-methylcyclopentyl)methyl)carbamoyl)-5-(trifluoromethyl)-1H-pyrazol-1-yl)-1-methylcyclohexanecarboxylic acid]
2.09	Cc1cc(Cl)c(C(=O)CN(CC2(C)CC2)C(=O)c2cnn([C@H]3CC[C@@](C)(C(=O)O)CC3)c2C(F)(F)F)c(Cl)c1 [Example 717]
9.55	Cc1cc(Cl)c(C(=O)CN(C(=O)c2cnn([C@H]3CC[C@](C)(C(=O)O)CC3)c2C(F)(F)F)[C@@H]2CCC23CCC3)c(Cl)c1 [Example 722, trans-4-(4-((2-(2,6-dichloro-4-methylphenyl)-2-oxoethyl)((1R)-spiro[3.3]hept-1-yl)carbamoyl)-5-(trifluoromethyl)-1H-pyrazol-1-yl)-1-methylcyclohexanecarboxylic acid]
2.51	Cc1cc(Cl)c(C(=O)CN(CC2CCC2)C(=O)c2cnn([C@H]3CC[C@](C)(C(=O)O)CC3)c2C(F)(F)F)c(Cl)c1 [Example 733, trans-4-(4-((cyclobutylmethyl)(2-(2,6-dichloro-4-methylphenyl)-2-oxoethyl)carbamoyl)-5-(trifluoromethyl)-1H-pyrazol-1-yl)-1-methylcyclohexanecarboxylic acid]
0.832	Cc1cc(Cl)c(C(=O)CN(C(=O)c2cnn([C@H]3CC[C@](C)(C(=O)O)CC3)c2C(F)(F)F)[C@H]2CCC23CCC3)c(Cl)c1 [Example 721, trans-4-(4-((2-(2,6-dichloro-4-methylphenyl)-2-oxoethyl)((1S)-spiro[3.3]hept-1-yl)carbamoyl)-5-(trifluoromethyl)-1H-pyrazol-1-yl)-1-methylcyclohexanecarboxylic acid]
1.74	Cc1cc(Cl)c(C(=O)CN(CC2CCCC2)C(=O)c2cnn([C@H]3CC[C@@](C)(C(=O)O)CC3)c2C(F)(F)F)c(Cl)c1 [Example 718, trans-4-(4-((cyclopentylmethyl)(2-(2,6-dichloro-4-methylphenyl)-2-oxoethyl)carbamoyl)-5-(trifluoromethyl)-1H-pyrazol-1-yl)-1-methylcyclohexanecarboxylic acid]
2.69	CC1(CN(CC(=O)c2c(Cl)cc(F)cc2Cl)C(=O)c2cnn([C@H]3CC[C@@](C)(C(=O)O)CC3)c2C(F)(F)F)CC1 [Example 716, trans-4-(4-((2-(2,6-dichloro-4-fluorophenyl)-2-oxoethyl)((1-methylcyclopropyl)methyl)carbamoyl)-5-(trifluoromethyl)-1H-pyrazol-1-yl)-1-methylcyclohexanecarboxylic acid]
4.27	Cc1cc(Cl)c(C(=O)CN(CCC2CC2)C(=O)c2cnn([C@H]3CC[C@](C)(C(=O)O)CC3)c2C(F)(F)F)c(Cl)c1 [Example 777, trans-4-(4-((2-cyclopropylethyl)(2-(2,6-dichloro-4-methylphenyl)-2-oxoethyl)carbamoyl)-5-(trifluoromethyl)-1H-pyrazol-1-yl)-1-methylcyclohexanecarboxylic acid]
4.17	Cc1cc(Cl)c(C(=O)CN(C(=O)c2cnn([C@H]3CC[C@](C)(C(=O)O)CC3)c2C(F)(F)F)[C@H]2C[C@@H](C(C)(C)C)C2)c(Cl)c1 [Example 689, trans-4-(4-((2-(2,6-dichloro-4-methylphenyl)-2-oxoethyl)(cis-3-(2-methyl-2-propanyl)cyclobutyl)carbamoyl)-5-(trifluoromethyl)-1H-pyrazol-1-yl)-1-methylcyclohexanecarboxylic acid]
